{"source": "ChEMBL document CHEMBL2021908", "about": "“Identification of novel isocytosine derivatives as xanthine oxidase inhibitors from a set of virtual screening hits” (Bioorg Med Chem, 2012)", "key": {"[1]": {"target": "T1, Xanthine dehydrogenase/oxidase (Bos taurus, UniProt P80457)", "T1 sequence (P80457 whole entry)": "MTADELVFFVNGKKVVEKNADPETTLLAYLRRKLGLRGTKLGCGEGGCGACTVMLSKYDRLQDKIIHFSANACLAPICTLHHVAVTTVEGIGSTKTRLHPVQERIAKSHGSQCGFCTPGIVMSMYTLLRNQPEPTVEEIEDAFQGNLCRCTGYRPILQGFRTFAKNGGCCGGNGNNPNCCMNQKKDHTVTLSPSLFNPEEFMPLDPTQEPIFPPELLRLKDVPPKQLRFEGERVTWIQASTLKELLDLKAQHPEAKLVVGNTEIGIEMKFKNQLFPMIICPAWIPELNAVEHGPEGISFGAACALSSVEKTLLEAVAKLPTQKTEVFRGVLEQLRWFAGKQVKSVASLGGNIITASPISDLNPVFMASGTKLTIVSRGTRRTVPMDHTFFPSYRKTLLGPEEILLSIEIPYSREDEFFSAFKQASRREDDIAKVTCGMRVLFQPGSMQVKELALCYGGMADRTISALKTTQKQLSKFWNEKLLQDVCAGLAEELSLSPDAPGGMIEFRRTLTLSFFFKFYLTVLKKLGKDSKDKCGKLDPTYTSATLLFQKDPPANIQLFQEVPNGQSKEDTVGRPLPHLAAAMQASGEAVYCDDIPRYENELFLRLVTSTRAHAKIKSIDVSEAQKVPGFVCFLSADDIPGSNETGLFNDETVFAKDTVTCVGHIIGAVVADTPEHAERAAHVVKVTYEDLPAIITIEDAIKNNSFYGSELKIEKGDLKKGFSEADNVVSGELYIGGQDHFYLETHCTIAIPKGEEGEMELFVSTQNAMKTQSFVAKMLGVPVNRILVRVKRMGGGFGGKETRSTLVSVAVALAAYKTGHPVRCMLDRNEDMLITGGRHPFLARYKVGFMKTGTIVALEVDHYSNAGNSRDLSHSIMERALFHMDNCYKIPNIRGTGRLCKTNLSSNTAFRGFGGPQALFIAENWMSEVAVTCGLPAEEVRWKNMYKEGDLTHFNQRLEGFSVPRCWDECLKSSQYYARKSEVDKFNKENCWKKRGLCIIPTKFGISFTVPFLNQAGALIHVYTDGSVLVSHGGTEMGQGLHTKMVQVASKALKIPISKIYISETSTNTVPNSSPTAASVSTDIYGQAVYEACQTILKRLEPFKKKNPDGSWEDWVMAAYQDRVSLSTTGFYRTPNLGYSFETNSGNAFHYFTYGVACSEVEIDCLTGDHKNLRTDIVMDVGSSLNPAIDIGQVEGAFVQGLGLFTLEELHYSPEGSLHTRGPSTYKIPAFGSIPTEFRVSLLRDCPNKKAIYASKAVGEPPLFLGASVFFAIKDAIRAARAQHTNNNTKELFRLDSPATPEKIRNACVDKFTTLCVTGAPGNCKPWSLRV", "test": "Inhibition of bovine xanthine oxidase assessed as uric acid formation using xanthine as substrate at 100 uM after 30 mins by spectrophotometric analysis", "details": "cattle, 0.5 h"}, "[2]": {"target": "T1, Xanthine dehydrogenase/oxidase", "test": "Inhibition of bovine xanthine oxidase assessed as uric acid formation using xanthine as substrate after 30 mins by spectrophotometric analysis"}, "[3]": {"tested_on": "Rattus norvegicus", "test": "Antihyperuricemic activity in Sprague-Dawley rat assessed as decrease of potassium oxonate-induced uric acid level in serum at 100 mg/kg, po administered 1 hr post potassium oxonate challenge measured after 4 hrs by photometric analysis relative to control", "format": "functional", "set-up": "scale not given: the % may be the effect or the level left"}, "[4]": {"tested_on": "Rattus norvegicus", "test": "Antihyperuricemic activity in Sprague-Dawley rat assessed as decrease of potassium oxonate-induced uric acid level in serum at 50 mg/kg, ip administered 1 hr post potassium oxonate challenge measured after 4 hrs by photometric analysis relative to control", "format": "functional", "set-up": "scale not given: the % may be the effect or the level left", "details": "route intraperitoneal"}, "[5]": {"tested_on": "Rattus norvegicus", "test": "Antihyperuricemic activity in Sprague-Dawley rat assessed as decrease of potassium oxonate-induced uric acid level in serum at 10 mg/kg, po administered 1 hr post potassium oxonate challenge measured after 4 hrs by photometric analysis relative to control", "set-up": "scale not given: the % may be the effect or the level left"}, "[6]": {"target": "T1, Xanthine dehydrogenase/oxidase", "test": "Inhibition of bovine xanthine oxidase assessed as uric acid formation using xanthine as substrate at 10 uM after 30 mins by spectrophotometric analysis", "details": "cattle, 0.5 h"}}}
{"smiles": "O=C(O)c1ccc(-n2ccnc2)c([N+](=O)[O-])c1", "values": [{"measurement": "inhibition at 100 µM", "setting": "[1]", "value": 0, "unit": "%"}]}
{"smiles": "COc1ccc(-c2cc(C(F)(F)F)nc(N)n2)cc1", "values": [{"measurement": "IC50", "setting": "[2]", "value": "> 100", "unit": "µM"}]}
{"smiles": "COc1ccc(-c2cc(O)nc(O)n2)cc1", "values": [{"measurement": "inhibition at 100 µM", "setting": "[1]", "value": 0, "unit": "%"}, {"measurement": "IC50", "setting": "[2]", "value": "> 100", "unit": "µM"}]}
{"smiles": "COc1ccc(-c2cc(O)nc(N)n2)cc1", "values": [{"measurement": "Activity", "setting": "[3]", "value": 84, "unit": "%"}]}
{"smiles": "COc1ccc(-c2cc(O)nc(N)n2)cc1OC", "values": [{"measurement": "Activity", "setting": "[4]", "value": 57, "unit": "%"}]}
{"smiles": "COc1cc2c(cc1OC)-c1n[nH]c(=O)n1CC2", "values": [{"measurement": "inhibition at 100 µM", "setting": "[1]", "value": 0, "unit": "%"}]}
{"smiles": "O=C1C(=CNNc2ccccc2)C(=O)N(c2ccc(Cl)cc2)C(=S)N1c1ccc(Cl)cc1", "values": [{"measurement": "inhibition at 100 µM", "setting": "[1]", "value": 0, "unit": "%"}]}
{"smiles": "COC(=O)c1cc(C)c2c(c1)S(=O)(=O)Cc1cc(NN)cc(Cl)c1O2", "values": [{"measurement": "inhibition at 100 µM", "setting": "[1]", "value": 0, "unit": "%"}]}
{"smiles": "COc1ccc(-c2cc(NS(C)(=O)=O)nc(N)n2)cc1", "values": [{"measurement": "IC50", "setting": "[2]", "value": "> 100", "unit": "µM"}]}
{"smiles": "Oc1ncnc2[nH]ncc12", "note": "[ALLOPURINOL]", "values": [{"measurement": "Activity", "setting": "[5]", "value": 184, "unit": "%"}, {"measurement": "inhibition at 10 µM", "setting": "[6]", "value": 100, "unit": "%"}]}
{"smiles": "Cc1nc(-c2ccc(OCC(C)C)c(C#N)c2)sc1C(=O)O", "note": "[FEBUXOSTAT]", "values": [{"measurement": "Activity", "setting": "[5]", "value": 209, "unit": "%"}]}
